Tests used:
[1] = target: P-glycoprotein (Homo sapiens, UniProt P08183); assay: P-glycoprotein substrate behaviour; format: cell-based
[2] = tested on: topoisomerase II β; assay: Topoisomerase II beta mRNA expression in U937 cells (PCR); format: cell-based; conditions: 10^4 mol/l, 24 h
Protocol: (§1) One of the controls involved the treatment of the cells with 0.05% (1 μl) DMSO. Untreated cells are also shown as a control.
(§2) After an incubation time of 24 h, expression was analysed by determining mRNA levels by real-time PCR. In the respective lanes of FIG. 2, the bands for topoisomerase II α (322 bp), topoisomerase II β (304 bp) and the GAPDH control (358 bp) are shown. In the H2O control lane, showing the results of the H2O control sample, no bands were observed.

[3] = Animal toxicity profile; conditions: animals
[4] = target: T1, MDR-1 gene product (P-glycoprotein) (Homo sapiens, UniProt P08183); assay: Functional MDR-1 assay with JC-1 in Kelly cells (flow cytometry); format: cell-based
T1 construct: endogenous in cells; host or cells: Kelly
Protocol: By means of an assay using JC-1, MDR-1 activity was assessed in Kelly cells, which express MDR-1. JC-1 is a cationic staining dye which is taken up by living cells. JC-1 is recognized by the MDR-1 gene product (P-glycoprotein) and pumped to the outside of the cell (substrate efflux). Thus, MDR-1 activity is indicated by a reduction in intracellular JC-1 signal.
Kelly cells grown in RPMI medium were washed and resuspended at a concentration of 10^6 cells/ml in solutions containing JC-1 in a final concentration of 50 nmol/l. […] The control contained 1 μl (0.05%) DMSO. Cells were analysed for JC-1 staining in a FACScanto II flow cytometer.

[5] = tested on: U937 cells; assay: Cell cycle analysis in multidrug-resistant U937 cells (propidium iodide); format: cell-based; conditions: 18 h, 24 h and 48 h, CAP7.1, etoposide 10^−4 mol/l
Protocol: The cells were incubated for 48 h. After 18 h, 24 h and 48 h of incubation, respectively, cell cycle analysis was performed as follows:
Cells were washed once with CellWash, fixed with fridge-cold 70% Ethanol for 30 min at 4° C. and washed three times. RNA was digested with RNAse A (100 μg/ml in PBS) for 10 min at room temperature. Cells were washed once with CellWash and stained with propidium iodide (50 μg/ml in PBS) for 5 min at room temperature in the dark. Cells were analyzed immediately by flow cytometry using a FACScanto II apparatus.

[6] = tested on: topoisomerase II α; assay: Topoisomerase II alpha mRNA expression in U937 cells (PCR); format: cell-based; conditions: 24 h
Protocol: as §1, §2

T1 sequence (P08183 whole entry): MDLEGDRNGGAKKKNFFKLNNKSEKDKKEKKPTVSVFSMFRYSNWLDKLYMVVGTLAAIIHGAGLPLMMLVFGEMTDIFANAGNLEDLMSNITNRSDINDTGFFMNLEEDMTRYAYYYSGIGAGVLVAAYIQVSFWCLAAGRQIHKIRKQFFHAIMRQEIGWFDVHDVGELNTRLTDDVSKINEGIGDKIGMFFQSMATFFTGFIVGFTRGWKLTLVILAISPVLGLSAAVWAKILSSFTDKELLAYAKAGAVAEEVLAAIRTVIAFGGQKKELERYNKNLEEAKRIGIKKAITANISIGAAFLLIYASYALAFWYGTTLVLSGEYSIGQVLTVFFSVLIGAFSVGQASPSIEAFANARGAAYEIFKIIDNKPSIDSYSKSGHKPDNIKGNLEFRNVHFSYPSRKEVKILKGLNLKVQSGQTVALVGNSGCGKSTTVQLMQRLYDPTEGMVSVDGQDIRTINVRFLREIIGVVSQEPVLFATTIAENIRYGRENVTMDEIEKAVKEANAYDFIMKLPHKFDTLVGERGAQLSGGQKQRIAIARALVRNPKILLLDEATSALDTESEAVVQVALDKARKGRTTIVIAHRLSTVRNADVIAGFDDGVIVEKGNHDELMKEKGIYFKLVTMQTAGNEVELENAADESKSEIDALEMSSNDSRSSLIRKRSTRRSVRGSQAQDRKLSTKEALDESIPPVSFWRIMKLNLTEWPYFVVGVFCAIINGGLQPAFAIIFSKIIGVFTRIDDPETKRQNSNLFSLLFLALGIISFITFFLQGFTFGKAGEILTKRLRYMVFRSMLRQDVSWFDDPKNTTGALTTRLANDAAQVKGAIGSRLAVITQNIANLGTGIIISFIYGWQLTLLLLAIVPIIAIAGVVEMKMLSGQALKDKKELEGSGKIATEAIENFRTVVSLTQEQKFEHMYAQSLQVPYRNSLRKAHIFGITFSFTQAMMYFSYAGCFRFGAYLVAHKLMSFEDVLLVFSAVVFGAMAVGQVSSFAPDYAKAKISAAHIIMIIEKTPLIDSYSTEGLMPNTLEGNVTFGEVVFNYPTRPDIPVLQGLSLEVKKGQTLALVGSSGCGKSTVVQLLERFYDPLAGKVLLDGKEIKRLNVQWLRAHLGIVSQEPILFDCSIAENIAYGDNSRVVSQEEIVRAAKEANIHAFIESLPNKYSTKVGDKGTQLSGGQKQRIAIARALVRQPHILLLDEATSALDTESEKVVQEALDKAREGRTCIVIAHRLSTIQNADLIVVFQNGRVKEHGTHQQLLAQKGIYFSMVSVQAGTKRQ
Chain of P-glycoprotein (P08183 whole entry): as above

COc1cc([C@@H]2c3cc4c(cc3[C@@H](O[C@@H]3O[C@@H]5CO[C@@H](C)O[C@H]5[C@H](O)[C@H]3O)[C@H]3COC(=O)[C@H]23)OCO4)cc(OC)c1O [etoposide, reference compound]
substrate for P-glycoprotein / efflux from cells [1]: pumped out of the cells
expression of topoisomerase II β (mRNA) [2]: significant decrease
weight loss [3]: significant weight loss
intracellular JC-1 signal versus DMSO control (MDR-1-mediated substrate efflux) ([4]; Kelly cells, 10^−4 mol/l, 15 min): identical
effect on the MDR-1 gene product P-glycoprotein ([4]; general statement): ineffective on P-glycoprotein
fraction of cells in G2 phase with increasing incubation times [5]: reduction
expression of topoisomerase II α (mRNA) [6]: significant decrease

Reference: patent publication US9889147B2 (CELLACT PHARMA GMBH, priority 2010, dated 2018)
